Test results from US5240941A, “Thioxo quinoline compounds, composition and method of use” (ICI Pharma, priority 1990, dated 1993).

Columns and labels:
5-LO [1] = test: Test g) zymosan-induced LTB4 liberation in air pouch of male rats; type: in vivo; conditions: 3 h; test g), rat air pouch, oral
Method: g) An in vivo system involving measuring the effects of a test compound administered orally against the liberation of LTB4 induced by zymosan within an air pouch generated within the subcutaneous tissue of the back of male rats. The rats are anaesthetised and air pouches are formed by the injection of sterile air (20 ml). A further injection of air (10 ml) is similarly given after 3 days. At 6 days after the initial air injection the test compound is administered (usually orally as the suspension produced when a solution of the test compound in dimethylsulphoxide is added to hydroxypropylmethylcellulose), followed by the intrapouch injection of zymosan (1 ml of a 1% suspension in physiological saline). After 3 hours the rats are killed, the air pouches are lavaged with physiological saline, and the specific radioimmunoassay described above is used to assay LTB4 in the washings. This test provides an indication of inhibitory effects against 5-LO in an inflammatory milieu.

5-LO [2] = test: Test b) heparinised human blood, A23187 challenge, LTB4 radioimmunoassay; type: cell-based
Method: b) An in vitro assay system involving incubating a test compound with heparinised human blood, prior to challenge with the calcium ionophore A23187 and then indirectly measuring the inhibitory effects on 5-LO by assaying the amount of LTB4 using specific radioimmunoassays described by Carey and Forder (F. Carey and R. A. Forder, Prostaglandins Leukotrienes Med., 1986, 22, 57; Prostaglandins,1984, 28, 666; Brit. J. Pharmacol. 1985, 84, 34P) which involve the use of a protein-LTB4 conjugate produced using the procedure of Young et alia (Prostaglandins, 1983, 26(4), 605-613). The effects of a test compound on the enzyme cyclooxygenase (which is involved in the alternative metabolic pathway for arachidonic acid and gives rise to prostaglandins, thromboxanes and related metabolites) may be measured at the same time using the specific radioimmunoassay for thromboxane B2 (TxB2) described by Carey and Forder (see above). This test provides an indication of the effects of a test compound against 5-LO and also cyclooxygenase in the presence of blood cells and proteins. It permits the selectivity of the inhibitory effect on 5-LO or cyclooxygenase to be assessed.

Row | Compound | ED50 (5-LO [1]) [mg/kg] | IC50 (5-LO [2]) [nM]
1 | COC1(c2cc(F)cc(Sc3ccc4c(c3)CCC(=S)N4C)c2)CCOCC1 [4-[5-fluoro-3-(1-methyl-2-thioxo-1,2,3,4-tetrahydroquinolin-6-ylthio)phenyl]-4-methoxytetrahydropyran] | 0.5 | 50
2 | COC1(c2cc(F)cc(OCc3ccc4c(c3)CCC(=S)N4C)c2)CCOCC1 [4-[5-fluoro-3-(1-methyl-2-thioxo-1,2,3,4-tetrahydroquinolin-6-ylmethoxy)phenyl]-4-methoxytetrahydropyran] | 1.5 | 100
